Reference: patent US20240287194A1, “Targeting Extracellular Matrix Proteins to Regulate NK Cell Function in Peripheral Tissues” (The General Hospital Corporation, priority 2021, published 2024)

What was measured:
[1] = test system: B2m^−/− B16-F10 melanoma cells; assay: Subcutaneous (S.C.) B2m−/− B16 melanoma model; assay type: in vivo, mice; details: for proportions of tumor infiltrating Tregs, macrophages and MDSCs: B2m−/− B16 melanoma at the endpoint; for NK cell infiltration of the tumor parenchyma: B2m−/− B16 melanoma, day 3 post-S.C. injection; for T cell recruitment into the B2m−/− B16 tumors: CD3+ T cells, day 3 post S.C. injection; for IFNγ expression of tumor NK cells / PD-1 expression of tumor NK cells / granzyme B expression of tumor NK cells: NK cells from B2m−/− B16 melanoma, day 19-21 post-S.C. injection; for survival / B2m−/− melanoma growth in the skin: S.C. B2m−/− B16 in WT mice, losartan 60 mg/kg or DHB 40 mg/kg I.P. every day; for B2m−/− melanoma growth in the skin: control IgG vs anti-NK1.1
Method: All tumor experiments were performed in eight to twelve-week-old C57BL/6 female WT or Ncr1^iCre ROSA^mT-mG mice. For the S.C. tumor model, 2.5×10^5 B16-F10 WT or B2m^−/− cells were subcutaneously injected into the shaved flanks of mice. Tumor growth was measured every other day using a digital caliper starting from day seven. Tumor volume was calculated as follows: […]
To inhibit collagen deposition in and around the tumor, mice were administered with 60 mg/kg of Losartan Potassium (Fisher Scientific, catalog no. L02325G) or 40 mg/kg of 3,4-dihydroxybenzoic acid (DHB) (Sigma-Aldrich, catalog no. 37580) in 100 μL of sterile 1×PBS while the control mice were administered with the equivalent volume of sterile 1×PBS. These drugs were injected I.P. every day for the duration of the study starting the day of tumor inoculation.
For the collagenase/hyaluronidase experiment, 2.5×10^5 B16-F10 B2m^−/− cells were resuspended in 1×collagenase and hyaluronidase mix (Stemcell, catalog no. 07912) and were subcutaneously injected into the shaved flanks of mice. To deplete collagen within the tumor, mice were administered with 1×collagenase and hyaluronidase mix (Stemcell, catalog no. 07912) in 100 μL of sterile 1×PBS while control mice were administered with the equivalent volume of sterile 1×sPBS. These enzymes were injected via intratumoral (I.T.) route starting on the day of tumor inoculation (day 0), day 1, day 2, day 3, day 4 and then every other day (day 6, 8, 10, etc.) until the end of the study. Except for day 3 tumor harvest, mice were euthanized when a tumor reached 2 cm in diameter in accordance with IACUC protocols. For early time point tumor analysis, specific Ncr1^iCre, ROSA^mT-mG mice from PBS, Losartan and DHB group were euthanized on day 3 post tumor inoculation, the implanted tumor harvested and fixed in pre-chilled 95% ethanol overnight at 4° C. before subjecting them to subsequent processing.
Terminal subcutaneous tumors were excised with the skin and weighed before cutting in half. One half was placed in appropriate fixative while the other half was separated from the skin and chopped with scissors into ˜1 mm pieces. These were transferred to a 15 mL tube with 10 mL digest buffer (RPMI 1640 (Life Technologies, catalog no. 21870076), 200 U/mL Collagenase IV (Worthington Biochemical, Lakewood, NJ, USA)) and incubated for 2 hours at 37° C. with shaking. Following incubation, digested tumor was poured onto a […] strainer placed in a 50 mL tube. The 15 mL tube was rinsed with ˜3 mL of 1×PBS/2% FCS/5 mM EDTA and added to the digested sample. The tumor was mashed with a plunger through the […] strainer which was then rinsed ˜3 times with a small volume of 1×PBS/2% FCS/5 mM EDTA. The tumor-infiltrating CD45^+ immune cells were isolated by magnetic-based positive selection using CD45 microbeads (Miltenyi Biotec, catalog no. 130-052-301) according to the manufacturer's protocol. The stained cells were passed through the LS columns (Miltenyi Biotec, catalog no. 130-042-401) placed between magnets for isolation of immune cells. The isolated CD45^+ cells were centrifuged at 300 g for 5 minutes at 4° C. and resuspended in 2.4G2 blocking solution before flow cytometry staining.
Mice were I.P. injected with 500 μg/mouse of IgG isotype control (Southern Biotech, Birmingham, AL, USA, catalog no. 0107-01) or depleting anti-NK1.1 antibody (clone PK136, BioXcell, West Lebanon, NH, USA, catalog no. BE0036) two days before tumor cell injection and 250 μg/mouse every other day starting the day of the tumor cell injection. For depletion of NK or T cells (anti-CD4 antibody, clone GK1.5, BioXcell; anti-CD8a antibody, clone YTS 169.4, BioXcell) in a skin transplant setting, 500 μg/mouse of each depleting antibody were injected the day of the transplant and 250 μg at days indicated in FIG. S5E. […]

[2] = test system: Ly49H^+ splenic cNK cells; assay: Splenic cNK cell co-culture with m157-MEF in the presence of ECM proteins (CD107a, IFNγ flow cytometry); assay type: cell-based, mice; details: for altering NK cell functions (CD107a, IFNγ): co-culture with m157-MEF
Method: (§1) Single-cell suspensions from all samples were prepared by straining through a 70 μm filter. 2.4G2 supernatant treated cells were stained in 1×PBS/2% FCS/5 mM EDTA with the appropriate surface antibodies (Table 2) for 30 minutes at 4° C., washed and analyzed by flow cytometry. For intracellular staining, cells were fixed and permeabilized using True-Nuclear Transcription Buffer set (Biolegend, catalog no. 424401) according to the manufacturer's protocol then incubated with appropriate antibodies (Table 2) for 60 min at RT, washed and analyzed by flow cytometry. For in vitro signaling experiments, following the specified time points, cells were fixed with an equal volume of pre-warmed 1×aldehyde based fixation buffer (Biolegend, catalog no. 420801) for 20 min at RT. Fixed cells were permeabilized by drop-wise addition of chilled methanol-based solution True-Phos Perm Buffer (Biolegend, catalog no. 425401) while mixed on a vortex. Cells were stored in-20° C. and dark for 1-3 days before washing them two times with ˜3 mL of 1×PBS/2% FCS/5 mM EDTA. Cells were subsequently stained with appropriate antibodies against surface markers and specific phosphorylated signaling proteins (Table 2) for 60 min at RT, washed and analyzed by flow cytometry. Cells were assayed on a BD LSRFortessa X-20 flow cytometer (BD Bioscience, Billerica, MA, USA) and data were analyzed using FlowJo software Version 10 (Tree Star, Ashlad, OR, USA). NK cells in WT non-reporting mice were identified as CD3^− NK1.1^+NKp46^+.
(§2) For in vitro experiments in the presence of ECM components, Collagen I (Rat tail, Sigma, catalog no. 08-115), collagen III (Human placenta, Sigma, catalog no. C4407), collagen IV (Mouse, Sigma, catalog no. C0543), Elastin (Mouse lung, Sigma, catalog no. E6402), Laminin (Mouse, Thermo Fisher, catalog no. 23017015) and Fibronectin (Rat plasma, Sigma, catalog no. F0635) were diluted in 1×PBS and coated at 20 μ ENREF 45 g/cm^2 in a 24 well tissue culture plate for 30 minutes at RT with gentle shaking followed by overnight at 4° C. Spleens from Ncr1^iCre, ROSA^mT-mG, WT or Lair1^−/− mice were harvested as described above. Then, 5×10^6 splenocytes resuspended in RPMI 10% FBS/1% P/S/20 mM Glutamine were mixed with 20 μg of respective ECM protein per well and were incubated at RT for 10 minutes. Splenocytes and ECM mix were plated onto the ECM-coated well and were incubated at 37° C./5% CO2 for 2 hours (short ECM exposure) or 17 hours (long ECM exposure). At the end of the incubation, 1×10^5 MEF (WT or m157) cells were added to each well to obtain a 50:1 splenocyte:MEF ratio. For cell signaling experiments, hydrogen peroxide (H2O2) at a final concentration of 2.5 mM or 1×10^5 MEF-m157 cells were added to each well except in “0 min” wells which were unstimulated and fixed immediately. Splenocytes were stimulated with 2.5 mM H2O2 for 2 min and 5 min or were co-cultured with MEF-m157 for 30 min and 60 min (signaling) or 7 hours (CD107a and IFN[…]) at 37° C./5% CO2. Splenocytes and MEF in co-culture were supplemented with mIL-12 (10 ng/mL, Biolegend, catalog no. 577002), mIL-15 (1 ng/mL, Shenandoah Biotechnology, catalog no. 200-07) and hIL-2 (Biolegend, catalog no. 589104; only long ECM exposure) as well as for CD107a/IFN experiments. 1 μL of anti-CD107a-BV421 (1D4B, Biolegend, catalog no. 121618), 1×Brefeldin A (Biolegend, catalog no. 420601) and 1×Monensin (Biolegend, catalog no. 420701) were added. Following the co-culture, cells were washed with 1×PBS/2% FCS/5 mM EDTA and the pellet was resuspended in 2.4G2 blocking solution before flow cytometry staining.

splenic cNK cells = assay: Phospho-signaling in splenic cNK cells stimulated with H2O2 in the presence of ECM proteins; assay type: cell-based, mice
Method: as §1, §2

## O=C(O)c1ccc(O)c(O)c1 [DHB, 3,4-dihydroxybenzoic acid]
[1]
  proportions of tumor infiltrating Tregs, macrophages and MDSCs: remained unaltered or increased
  NK cell infiltration of the tumor parenchyma: highly infiltrated the tumor parenchyma
  T cell recruitment into the B2m−/− B16 tumors: did not induce T cell recruitment
  IFNγ expression of tumor NK cells: markedly elevated expression
  PD-1 expression of tumor NK cells: markedly elevated expression
  granzyme B expression of tumor NK cells: markedly elevated expression
  survival: significant survival benefit
  B2m−/− melanoma growth in the skin: protected the mice from B2m^−/− melanoma growth in the skin in an NK cell-dependent manner

## CCCCc1nc(Cl)c(CO)n1Cc1ccc(-c2ccccc2-c2nn[nH]n2)cc1 [losartan, Losartan Potassium]
[1]
  proportions of tumor infiltrating Tregs, macrophages and MDSCs: remained unaltered or increased
  NK cell infiltration of the tumor parenchyma: highly infiltrated the tumor parenchyma
  T cell recruitment into the B2m−/− B16 tumors: did not induce T cell recruitment
  IFNγ expression of tumor NK cells: markedly elevated expression
  PD-1 expression of tumor NK cells: markedly elevated expression
  granzyme B expression of tumor NK cells: markedly elevated expression
  survival: significant survival benefit
  B2m−/− melanoma growth in the skin: protected the mice from B2m^−/− melanoma growth in the skin in an NK cell-dependent manner

## collagen IV: collagen IV (Mouse, Sigma), epidermal basement membrane protein
[2]; 9 and 24 hours
  altering NK cell functions (CD107a, IFNγ): played a minor role

## fibronectin: Fibronectin (Rat plasma, Sigma), epidermal basement membrane protein
[2]; 9 and 24 hours
  altering NK cell functions (CD107a, IFNγ): played a minor role

## laminin: Laminin (Mouse, Thermo Fisher), epidermal basement membrane protein
[2]; 9 and 24 hours
  altering NK cell functions (CD107a, IFNγ): played a minor role

B1: elastin: Elastin (Mouse lung, Sigma), dermal ECM protein (protein, UniProt P54320 28-860, looked up)
Elastin: GGVPGAVPGGLPGGVPGGVYYPGAGIGGLGGGGGALGPGGKPPKPGAGLLGTFGAGPGGLGGAGPGAGLGAFPAGTFPGAGALVPGGAAGAAAAYKAAAKAGAGLGGVGGVPGGVGVGGVPGGVGVGGVPGGVGVGGVPGGVGGIGGIGGLGVSTGAVVPQVGAGIGAGGKPGKVPGVGLPGVYPGGVLPGTGARFPGVGVLPGVPTGTGVKAKAPGGGGAFAGIPGVGPFGGQQPGVPLGYPIKAPKLPGGYGLPYTNGKLPYGVAGAGGKAGYPTGTGVGSQAAAAAAKAAKYGAGGAGVLPGVGGGGIPGGAGAIPGIGGIAGAGTPAAAAAAKAAAKAAKYGAAGGLVPGGPGVRLPGAGIPGVGGIPGVGGIPGVGGPGIGGPGIVGGPGAVSPAAAAKAAAKAAKYGARGGVGIPTYGVGAGGFPGYGVGAGAGLGGASPAAAAAAAKAAKYGAGGAGALGGLVPGAVPGALPGAVPAVPGAGGVPGAGTPAAAAAAAAAKAAAKAGLGPGVGGVPGGVGVGGIPGGVGVGGVPGGVGPGGVTGIGAGPGGLGGAGSPAAAKSAAKAAAKAQYRAAAGLGAGVPGFGAGAGVPGFGAGAGVPGFGAGAGVPGFGAGAGVPGFGAGAVPGSLAASKAAKYGAAGGLGGPGGLGGPGGLGGPGGLGGAGVPGRVAGAAPPAAAAAAAKAAAKAAQYGLGGAGGLGAGGLGAGGLGAGGLGAGGLGAGGLGAGGLGAGGLGAGGGVSPAAAAKAAKYGAAGLGGVLGARPFPGGGVAARPGFGLSPIYPGGGAGGLGVGGKPPKPYGGALGALGYQGGGCFGKSCGRKRK
[2]; 9 and 24 hours co-culture with m157-MEF, ECM coated 20 μg/cm2
  Ly49H+ cNK cell degranulation (CD107a): potently blocked
[2]; exposed to m157-MEF, 9 and 24 hours
  IFNγ production by Ly49H+ cNK cells: suppressed
Splenic cNK cells; H2O2 2.5 mM, 2 and 5 min
  pERK1/2 levels in NK cells: markedly reduced
  pPLCγ1 levels in NK cells: markedly reduced
Splenic cNK cells; baseline and 2- and 5-minute exposure to H2O2
  pSTAT3 in NK cells: increased pSTAT3 at baseline
Splenic cNK cells; baseline and 2- and 5-minutes exposure to H2O2
  pSTAT5 in NK cells: highly induced
